From patent US11814652B2, “Pluripotent stem cell differentiation-promoting agent” (Oriental Yeast Co., Ltd., priority 2018, dated 2023)

Tests used:
[1] = tested on: iPS cells 253G1 strain; assay: Cell number during endodermal differentiation-induction in medium with β-NMN (Example 4); assay type: cell-based; details: endodermal differentiation-inducing medium containing β-NMN 0.1, 0.25 or 1 mM; 7th day after seeding; versus medium not containing β-NMN
Protocol: The effects of β-NMN on the induction of endodermal differentiation of iPS cells were examined. As the iPS cells, the 253G1 strain was used. The iPS cells were seeded in a 24-well plate coated with Matrigel (manufactured by Corning Incorporated) according to the manufacturer's protocol at 3×10^5 cells/well. The cells in the 24-well plate were cultured in a culture medium for iPS cells adjusted to have a final concentration of Rock inhibitor of 10 μM for 1 day. From the 1st day after seeding, the culture medium was replaced with a culture medium prepared by adjusting an endoderm differentiation-inducing culture medium of “STEMdiff Trilineage Differentiation kit” (manufactured by STEMCELL Technologies) to have a final concentration of β-NMN of 0, 0.1, 0.25, or 1 mM for 1 day. The culture medium was replaced with a culture medium prepared by adjusting an endodermal differentiation-inducing culture medium to have final concentrations of both β-NMN and Rock inhibitor of 10 μM only on the 1st day after seeding. Cells of the 7th day after seeding were sampled and the cell numbers were counted. As a result, the number of the cells cultured in the endodermal differentiation-inducing culture medium containing β-NMN was larger than the number of the cells cultured in the medium not containing β-NMN.

[2] = tested on: iPS cells 201B7 strain; assay: Flow cytometry of Nestin/PAX6 after ectodermal differentiation-induction following undifferentiated culture with β-NMN (Example 7); assay type: cell-based, human; details: β-NMN 0.25 or 1 mM before ectodermal differentiation-induction; 7th or 9th day; versus absence of β-NMN
Protocol: The effects of culturing in the presence of β-NMN before induction of differentiation on the ectodermal differentiation-induction of iPS cells was examined. As the iPS cells, the 201B7 strain was used. The iPS cells were cultured in a culture dish in the same manner as in Example 5, and when the confluent reached 70 to 80%, the iPS cells were detached from the culture dish and collected. The collected iPS cells were seeded at 3×10^5 cells/well in a 24-well plate coated with Matrigel (manufactured by Corning Incorporated) according to the manufacturer's protocol. The cells in the 24-well plate were cultured for 1 day in a culture medium prepared by removing β-NMN from the culture medium when culturing in the culture dish and adjusting to have a final concentration of Rock inhibitor of 10 μM. From the 1st day after seeding, the medium was replaced every day with a culture medium for ectodermal differentiation-induction of “STEMdiff Trilineage Differentiation kit” (manufactured by STEMCELL Technologies). In the same manner as in Example 2, the cells sampled on the 7th or 9th day after seeding were stained with a fluorescently labeled anti-Nestin antibody and a fluorescently labeled anti-PAX6 antibody, and a flow cytometer was used to analyze the fluorescence intensity of the anti-Nestin antibody and the fluorescence intensity of the anti-PAX6 antibody in each sample. […]

[3] = tested on: iPS cells 201B7 strain; assay: Cell number in ectodermal differentiation-induction after undifferentiated culture with β-NMN (Example 7); assay type: cell-based, human; details: β-NMN 0.25 or 1 mM in culture medium for iPS cells before ectodermal differentiation-induction; 7th or 9th day after seeding; versus no β-NMN
Protocol: The effects of culturing in the presence of β-NMN before induction of differentiation on the ectodermal differentiation-induction of iPS cells was examined. As the iPS cells, the 201B7 strain was used. The iPS cells were cultured in a culture dish in the same manner as in Example 5, and when the confluent reached 70 to 80%, the iPS cells were detached from the culture dish and collected. The collected iPS cells were seeded at 3×10^5 cells/well in a 24-well plate coated with Matrigel (manufactured by Corning Incorporated) according to the manufacturer's protocol. The cells in the 24-well plate were cultured for 1 day in a culture medium prepared by removing β-NMN from the culture medium when culturing in the culture dish and adjusting to have a final concentration of Rock inhibitor of 10 μM. From the 1st day after seeding, the medium was replaced every day with a culture medium for ectodermal differentiation-induction of “STEMdiff Trilineage Differentiation kit” (manufactured by STEMCELL Technologies). The cells of the 7th or 9th day after seeding were sampled and the cell numbers were counted. The time-dependent change in cell number of each sample is shown in FIG. 12(A), and the cell number of each sample on the 9th day after seeding is shown in FIG. 12(B). […]

[4] = tested on: iPS cells 201B7 strain; assay: Cell number in mesodermal differentiation-induction after undifferentiated culture with β-NMN (Example 6); assay type: cell-based, human; details: β-NMN 0.25 or 1 mM in culture medium for iPS cells before mesodermal differentiation-induction; 7th day after seeding; versus no β-NMN
Protocol: The effects of culturing in the presence of β-NMN before induction of differentiation on the mesodermal differentiation-induction of iPS cells was examined. As the iPS cells, the 201B7 strain was used. The iPS cells were cultured in a culture dish in the same manner as in Example 5, and when the confluent reached 70 to 80%, the iPS cells were detached from the culture dish and collected. The collected iPS cells were seeded at 1×10^5 cells/well in a 24-well plate coated with Matrigel (manufactured by Corning Incorporated) according to the manufacturer's protocol. The cells in the 24-well plate were cultured for 1 day in a culture medium prepared by removing β-NMN from the culture medium when culturing in the culture dish and adjusting to have a final concentration of Rock inhibitor of 10 μM. From the 1st day after seeding, the medium was replaced every day with a culture medium for mesodermal differentiation-induction of “STEMdiff Trilineage Differentiation kit” (manufactured by STEMCELL Technologies). The cells of the 7th day after seeding were sampled and the cell numbers were counted. […]

NC(=O)c1ccc[n+]([C@@H]2O[C@H](COP(=O)([O-])O)[C@@H](O)[C@H]2O)c1 [β-NMN, β-nicotinamide mononucleotide]
number of the cells [1]: larger
ratio of Nestin-positive PAX6-positive cells [2]: no clear difference
number of the cells [3]: larger
number of the cells [4]: larger
